Values quoted from earlier work, collected in US9896491B2, “Composition for treatment of multiple sclerosis” (LIFEBIO LABORATORIES LLC, priority 2009, dated 2018).

Test system: secondary progressive MS patients
Conditions: phase I; cited from earlier work

MBP 84-102: MBP 84-102 fragment (U.S. Pat. No. 5,858,980) (DPGSRPHLIRLFSRDAPGR; UniProt P02686 84-102, looked up, fragment)
treatment efficacy (Expanded Disability Status Scale, Nine Hole Peg Test, new lesions by Magnetic Resonance Imaging): No treatment efficacy were detected
